# Target: BTK (Homo sapiens, UniProt Q06187)
# Test: biochemical
# Conditions: read-out: BTK inhibition (%)
# BTK, sequence (Q06187 402-655 limits assumed): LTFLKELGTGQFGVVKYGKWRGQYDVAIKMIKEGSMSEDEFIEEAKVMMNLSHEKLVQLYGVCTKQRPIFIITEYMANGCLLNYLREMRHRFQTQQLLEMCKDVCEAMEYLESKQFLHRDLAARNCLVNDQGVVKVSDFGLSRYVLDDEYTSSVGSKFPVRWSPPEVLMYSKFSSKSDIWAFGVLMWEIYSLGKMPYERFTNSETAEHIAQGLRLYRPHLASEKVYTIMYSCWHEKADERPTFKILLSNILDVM
row,SMILES,inhibition at 10 µM
1,Cc1sc2c(c1C)C(c1ccc(Cl)cc1)=N[C@@H](CC(=O)OC(C)(C)C)c1nnc(C)n1-2 [PCM-0095747],10.8%
2,C=C[C@@]12CN(C)[C@H]3C[C@]14C(=Nc1ccccc14)[C@@H]1C[C@@H]2[C@@H]3CO1 [PCM-0216515],-16.2%

# Same assay, conditions: read-out: BTK inhibition (%), 0.75 uM BTK, […] probe 3l, 15 min preincubation
row,SMILES,inhibition at 10 µM
1,COc1cc(F)c(F)c(Nc2ccc(I)cc2F)c1NS(=O)(=O)C1(C[C@H](O)CO)CC1 [PCM-0214795],36.6%
2,C=C(C(=O)O)[C@@H]1CC[C@@H](C)[C@@H]2CCC(C)=C[C@@H]21 [PCM-0216417],0%
3,CC(=O)Nc1ccc(OC(=O)c2ccccc2OC(C)=O)cc1 [PCM-0216013],2.1%
4,Oc1c(Cl)cc(Cl)c2cccnc12 [PCM-0085913],-0.8%
5,CCN(CCO)CCCOc1ccc2c(Nc3cc(CC(=O)Nc4cccc(F)c4)[nH]n3)ncnc2c1 [PCM-0094969],66.9%
6,CC(=O)N1CCN(CCOc2ccc(C3CCN(C4=Nn5c(nnc5C(F)(F)F)CC4)CC3)cc2)CC1 [PCM-0215224],-17%
7,COC(=O)Nc1nc2ccc(C(=O)c3ccc(F)cc3)cc2[nH]1 [PCM-0086402],-3.4%
8,C[C@@H]1O[C@H]2O[C@H]3[C@@H](OC[C@H](O)[C@@H]3O)OC(=O)[C@]34CCC(C)(C)C[C@H]3C3=CC[C@H]5[C@@]6(C)C[C@H](O)[C@H](O[C@@H]7O[C@H](CO)[C@@H](O)[C@H](O)[C@H]7O[C@@H]7OC[C@H](OC(=O)C[C@](C)(O)CC(=O)O[C@@H]1[C@@H](O[C@@H]1OC[C@@H](O)[C@H](O)[C@H]1O)[C@H]2O)[C@H](O)[C@H]7O)[C@@](C)(CO)[C@@H]6CC[C@@]5(C)[C@]3(C)CC4 [PCM-0214951],6.2%
9,Cc1nc(Nc2ncc(C(=O)Nc3cc(NC(=O)c4cccc(C(F)(F)F)c4)ccc3C)s2)cc(N2CCN(CCO)CC2)n1 [PCM-0216225],47.9%
10,CCn1c2ccccc2c2cc(Nc3ccnc(NCCCN4CCOCC4)n3)ccc21 [PCM-0215246],-6.9%
11,COc1ccc(/C=C/c2cc(O)cc(O)c2)cc1O [PCM-0216438],14.7%
12,Oc1ccc2ccccc2c1N=Nc1ccc(N=Nc2ccccc2)cc1 [PCM-0215976],-3.1%
13,CCCCCCCCCCCCCC(=O)OCC(COC(=O)CCCCCCCCCCCCC)OC(=O)CCCCCCCCCCCCC [PCM-0216465],-18.7%
14,Cc1ccc(C(=O)c2cc(O)c(O)c([N+](=O)[O-])c2)cc1 [PCM-0095576],38.1%
15,CCc1cc2c(cc1N1CCC(N3CCOCC3)CC1)C(C)(C)c1[nH]c3cc(C#N)ccc3c1C2=O [PCM-0095523],11.7%
16,CC1(C)S[C@@H]2[C@H](NC(=O)[C@H](NC(=O)N3CCNC3=O)c3ccccc3)C(=O)N2[C@H]1C(=O)O [PCM-0095627],30.4%
17,Cn1nnc2c(C(N)=O)ncn2c1=O [PCM-0086047],-4.1%
18,COc1ccc(-c2oc3c(CC=C(C)C)c(O[C@@H]4O[C@H](CO)[C@@H](O)[C@H](O)[C@H]4O)cc(O)c3c(=O)c2O[C@@H]2O[C@@H](C)[C@H](O)[C@@H](O)[C@H]2O[C@@H]2O[C@@H](C)[C@H](O)[C@@H](O)[C@H]2O)cc1 [PCM-0216512],-13.1%
19,CC(C)(C)C1CCC(CC2=C(O)c3ccccc3C(=O)C2=O)CC1 (stereo not drawn) [PCM-0214772],3.1%
20,CCCNCC(O)COc1ccccc1C(=O)CCc1ccccc1 (stereo not drawn) [PCM-0064846],2.3%
21,CCOCCn1c(N2CCCN(C)CC2)nc2ccccc21 [PCM-0086037],2.3%
22,CC(=O)CCc1ccccc1 [PCM-0216622],-6.9%
23,Cc1ccc(S(=O)(=O)NC(=O)NN2CC3CCCC3C2)cc1 (stereo not drawn) [PCM-0086156],-2.3%
24,Cc1ccc(S(=O)(=O)/C=C/C#N)cc1 [PCM-0065564],-12.4%
25,COC[C@H]1C[C@@H](c2ncc(-c3ccc4c(c3)COc3cc5c(ccc6[nH]c([C@@H]7CC[C@H](C)N7C(=O)[C@@H](NC(=O)OC)C(C)C)nc65)cc3-4)[nH]2)N(C(=O)[C@H](NC(=O)OC)c2ccccc2)C1 [PCM-0214920],56%

row,SMILES,inhibition at 10 µM
1,O=c1[nH]cc(F)c(=O)[nH]1 [PCM-0065247],-0.7%
2,CN1C(C(=O)Nc2ccccn2)=C(O)c2ccccc2S1(=O)=O [PCM-0064770],9%
3,COC1=CC(=O)c2ccccc2C1=O [PCM-0214886],85.6%
4,Cc1cc(Nc2ncc(Cl)c(Nc3ccccc3S(=O)(=O)C(C)C)n2)c(OC(C)C)cc1C1CCNCC1 [PCM-0095745],69.7%
5,CC(C)=CCOc1ccc(/C=C/C(=O)c2ccc(OCC=C(C)C)cc2OCC(=O)O)cc1 [PCM-0216579],16.2%
6,CNC(=O)c1c(F)cccc1Nc1nc(Nc2cc3c(cc2OC)CCN3C(=O)CN(C)C)nc2[nH]ccc12 [PCM-0095412],13.8%
7,NC(N)=NCCCC[C@H](N)C(=O)O [PCM-0216161],-8.5%
8,O=c1ccn([C@@H]2O[C@H](COP(=O)(O)O)[C@@H](O)[C@H]2O)c(=O)[nH]1 [PCM-0216290],-6.8%
9,COc1cc(C(=O)O)ccc1O [PCM-0216103],3.1%
10,Nc1nc(NC2CC2)c2ncn([C@H]3C=C[C@@H](CO)C3)c2n1 [PCM-0086436],9.4%
11,C[C@H](CS)C(=O)N1CCC[C@H]1C(=O)O [PCM-0064658],-2.3%
12,C=C[C@@](C)(/C=C/c1ccc(O)cc1)CCC=C(C)C [PCM-0094651],6.9%
13,COC1(c2sc3c(N4CCOCC4)nc(-c4cnc(N)nc4)nc3c2C)COC1 [PCM-0215460],33.8%
14,COc1ccc(C(=O)C2CCN(CC(=O)N(Cc3nc4c(c(=O)[nH]3)COCC4)CC3CC3)CC2)cc1 [PCM-0215580],-6.9%
15,C=CS(=O)(=O)NC1CCN(C(=O)CNc2cc(I)c(Cl)cc2OC)CC1 [PCM-0215340],6.2%
16,NS(=O)(=O)c1cc2c(cc1Cl)NC(C(Cl)Cl)NS2(=O)=O (stereo not drawn) [PCM-0086441],-14%
17,COc1ccc(-c2oc3c(CC=C(C)C)c(O)cc(O)c3c(=O)c2O)cc1 [PCM-0216376],3.9%
18,CC(C)S(=O)(=O)c1ccc2nccc(Nc3ccc4scnc4c3)c2c1 [PCM-0213432],26.2%
19,Nc1nc(N)nc(-c2cc(Cl)ccc2Cl)n1 [PCM-0086432],4.3%
20,CC(C)=CCC[C@](C)(O)[C@H]1CC[C@]2(C)[C@@H]1[C@H](O)C[C@@H]1[C@@]3(C)CC[C@H](O)C(C)(C)[C@@H]3[C@@H](O[C@@H]3O[C@H](CO)[C@@H](O)[C@H](O)[C@H]3O)C[C@]12C [PCM-0216412],-10.8%
21,CNC(=O)c1cccc(-c2ccc3c(N4CCOC[C@@H]4C)nc(N4CCOC[C@@H]4C)nc3n2)c1 [PCM-0095362],-2.8%
22,C[C@H](CCC(=O)NCCS(=O)(=O)O)[C@H]1CC[C@H]2[C@@H]3[C@@H](O)C[C@@H]4C[C@H](O)CC[C@]4(C)[C@H]3CC[C@]12C [PCM-0215517],5.4%
23,COC(=O)c1ccc(O)c(C(=O)OC)c1 [PCM-0215105],-13.1%
24,CCS(=O)(=O)Nc1ccc(Oc2ccc(F)cc2F)c(-c2cn(C)c(=O)c3[nH]ccc23)c1 [PCM-0214596],16.2%
25,COCCCC/C(=N\OCCN)c1ccc(C(F)(F)F)cc1 [PCM-0065088],-8.6%

row,SMILES,inhibition at 10 µM
1,CN(C)C(=N)N=C(N)N [PCM-0085761],21.8%
2,C[C@H](CCC(=O)O)[C@H]1CC[C@H]2[C@@H]3[C@H](O)C[C@@H]4C[C@H](O)CC[C@]4(C)[C@H]3CC[C@]12C [PCM-0214654],6.2%
3,Nc1c(CC(=O)O)cccc1C(=O)c1ccccc1 [PCM-0214756],-17.2%
4,Cc1ncc(-c2ccnc(Nc3ccc(S(C)(=O)=O)cc3)n2)n1C(C)C [PCM-0095478],48.3%
5,C[C@H](NC(=O)CCC(F)(F)F)C(=O)N[C@@H]1C(=O)N(CCO)c2ncccc2-c2ccccc21 [PCM-0215760],15.4%
6,CCCCCOC(=O)Nc1nc(=O)n([C@@H]2O[C@H](C)[C@@H](O)[C@H]2O)cc1F [PCM-0094987],-11.7%
7,C=C[C@H]1CN2CC[C@H]1C[C@H]2[C@H](O)c1ccnc2ccccc12 [PCM-0094829],-10.9%
8,Cc1nc(N(C)C(=O)Cc2ccc(-c3ccccn3)cc2)sc1S(N)(=O)=O [PCM-0215334],0.8%
9,COC(=O)C1=CO[C@@H](O[C@@H]2O[C@H](CO)[C@@H](O)[C@H](O)[C@H]2O)[C@@H]2C(CO)=CC[C@H]12 [PCM-0087450],-1.6%
10,COc1cc(N2CCN(C)CC2)ccc1Nc1ncc2c(n1)N(C)c1ccccc1C(=O)N2 [PCM-0213372],11%
11,C[C@@H]1COCCN1c1cc(C2(S(C)(=O)=O)CC2)nc(-c2cccc3[nH]ccc23)n1 [PCM-0095779],-7.6%
12,CCCCCCCN(CC)CCCC(O)c1ccc(NS(C)(=O)=O)cc1 (stereo not drawn) [PCM-0086483],-17.1%
13,C[C@@H]1O[C@@H](O[C@H]2[C@H](Oc3cc(O)c4c(c3)O[C@H](c3ccc(O)cc3)CC4=O)O[C@H](CO)[C@@H](O)[C@@H]2O)[C@H](O)[C@H](O)[C@H]1O [PCM-0088327],-7%
14,COc1ccc(CNCc2cccc3ccccc23)cc1 [PCM-0095454],-19.5%
15,CN(C)CCNC(=O)c1cccn2c(=O)c3cc4ccccc4cc3nc12 [PCM-0215411],5.4%
16,COc1ccc(-c2cc(=O)c3c(O)cc(O)cc3o2)cc1O [PCM-0094859],57.6%
17,C/C1=C\CC[C@H](C)C(=O)C[C@@H](C(C)C)C(=O)C1 [PCM-0216439],-3.9%
18,CC(C)(C)Cn1c(N)nc2ccc(-c3[nH]c(C(C)(C)C)nc3-c3ccc(F)cc3)nc21 [PCM-0095175],-5.1%
19,CC/C(=C(/CC)c1ccc(O)cc1)c1ccc(O)cc1 [PCM-0086456],-26.5%
20,CCCCNc1ccc(C(=O)OCCN(C)C)cc1 [PCM-0064772],10.9%
21,CC(=O)Oc1cc(C(F)(F)F)ccc1C(=O)O [PCM-0065558],-8.6%
22,OC[C@H]1OC(O)[C@H](O)[C@@H](O)[C@@H]1O (stereo partly drawn) [PCM-0095297],-10.1%
23,O=C(Nc1cc(C(F)(F)F)cc(C(F)(F)F)c1)c1cc(Cl)ccc1O [PCM-0095509],42.8%
